One molecule from patent US7485601B2, “Herbicide composition” (Sumitomo Chemical Company, Limited, priority 2001, dated 2009) can be followed below.

Data set [1] deals with yellow nutsedge (Cyperus esculentus). The data set is described as follows: Herbicide effect by foliar spray on pot-grown yellow nutsedge in greenhouse (Test Example 1). The format is in vivo. To be noted: evaluated 25 days after treatment, level 0-10. Here is the method: (§1) Evaluation of phytotoxicity against a crop was shown by “no” when almost no phytotoxicity was observed, “low” when a low level phytotoxicity was observed, “medium” when a medium level phytotoxicity was observed and “high” when a high level phytotoxicity was observed.
(§2) A plastic pot of 11 cm in diameter and 8 cm in depth was filled with field soil. A tuber of yellow nutsedge (Cyperus esculentus) was planted and grown in a greenhouse for 21 days.
(§3) An emulsion of Compound A-1 was prepared by sufficiently mixing 5 parts of Compound A-1, 6 parts of Sorpol 3005×(surfactant, produced by Toho Chemical) and 89 parts of xylene.
(§4) Each of single use of an emulsion of Compound A-1, single use of an formulation of Chlorimuron-ethyl (commercial name: Classic, produced by Du Pont, containing 25% of Chlorimuron-ethyl), and a mixed composition of an emulsion of Compound A-1 and an formulation of Chlorimuron-ethyl, were diluted with water containing 1% Agri-dex (produced by Helena). Respective dilutions were uniformly sprayed from upper side onto foliages of yellow nutsedge grown as described above with a small sprayer such that the amounts of the active ingredients were the amounts shown in Table 4. […]
(§5) After the treatment, they were raised in a greenhouse for 25 days and the effect against weeds was evaluated. In addition, after 14 days of the treatment, the phytotoxicity to soybean was evaluated.

Another data set concerns soybean. As to the kind of experiment: Phytotoxicity to soybean sown immediately after treatment (Test Example 1). Type of data set: in vivo. To be noted: evaluated after 14 days. Here is the method:
as §1, §2, §3, §4, §5

Molecules are shown by their SMILES.

Turning to `CCOC(=O)c1ccccc1S(=O)(=O)NC(=O)Nc1nc(Cl)cc(OC)n1` [Chlorimuron-ethyl, ethyl 2-(4-chloro-6-methoxypyrimidin-2-ylcarbamoylsulfamoyl)benzoate], the “Herbicide Effect yellow nutsedge” value in data set [1] (5 g/ha active ingredient) is given as 1; in data set [1] (20 g/ha active ingredient), 2. In addition, the Phytotoxicity soybean result with soybean (5 g/ha active ingredient) and with soybean (20 g/ha active ingredient) was “no” throughout.
